We go through 18 compounds from US20040142993A1, “Inhibitors of HCV NS5B polymerase” (priority 2002, published 2004).

Structures can show the parent of a compound that is named as a salt.

HCV NS5b RNA dependent RNA polymerase, sequence (P27958 2421-3011): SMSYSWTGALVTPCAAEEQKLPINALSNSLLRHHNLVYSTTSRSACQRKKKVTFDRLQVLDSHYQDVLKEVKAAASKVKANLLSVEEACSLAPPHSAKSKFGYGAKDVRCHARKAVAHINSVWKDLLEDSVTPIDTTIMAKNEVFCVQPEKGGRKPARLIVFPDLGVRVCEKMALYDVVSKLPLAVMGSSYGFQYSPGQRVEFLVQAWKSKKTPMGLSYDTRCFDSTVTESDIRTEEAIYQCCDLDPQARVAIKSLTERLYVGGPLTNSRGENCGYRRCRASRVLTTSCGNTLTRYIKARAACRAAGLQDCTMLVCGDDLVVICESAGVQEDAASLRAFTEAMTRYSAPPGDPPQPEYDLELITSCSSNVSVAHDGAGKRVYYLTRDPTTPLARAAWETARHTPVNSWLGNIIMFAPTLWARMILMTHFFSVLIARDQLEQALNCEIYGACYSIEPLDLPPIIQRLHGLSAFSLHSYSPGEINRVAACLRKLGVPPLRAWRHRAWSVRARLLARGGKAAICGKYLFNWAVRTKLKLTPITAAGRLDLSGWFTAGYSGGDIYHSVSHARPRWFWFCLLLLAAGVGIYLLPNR

For this test, the target named is HCV NS5b RNA dependent RNA polymerase (Hepatitis C virus genotype 1a, UniProt P27958). Kind of test: Inhibition of HCV NS5b RNA dependent RNA polymerase activity (incorporation of 3H labeled GTP, scintillation proximity). As to conditions: HCV NS5b polymerase assay; read-out: concentration for 50% inhibition (inhibitory activity, Table 2). It counts as biochemical. How it is done:
Compounds of the present invention are evaluated for inhibition of HCV NS5b RNA dependent RNA polymerase activity in assays comprised of a suitable buffer (e.g. 20 mM Tris-HCl pH 7.6), primed or unprimed RNA templates, GTP, ATP, CTP, and UTP, MnCl2 or MgCl2, and reducing agent such as 10 mM dithiothreitol or 2-mercaptoethanol. The assay buffer may contain salts such as ammonium acetate, KCl, or NaCl, and nonionic or zwitterionic detergents such as Tween or CHAPS. The incorporation of nucleotides into the complementary RNA strand may be monitored by the incorporation of radiolabeled NTP (e.g. ^3H labeled GTP). Suitable RNA templates for de novo initiation in the presence of 20-50 μM GTP or ATP are the homopolymers poly rC and poly rU, respectively. Heteropolymer RNA templates with 1-3 cytidine (C) bases or 1-3 uridine (U) bases at the 3′ terminus of the template may also be used for de novo initiation. Primed RNA templates such as poly rC primed with oligo rG or oligo dG, and poly rA primed with oligo rU may also be used to detect polymerase activity. The primers may be any length greater than 10 bases. A biotin residue may be added to the 5′ end of the template or the 5′ end of the primer to capture the template and the newly synthesized, complementary strand on avidin coated spheres. One embodiment of this technology consists of a mixture of NS5b polymerase, a poly rC RNA template primed with 5′ biotinylated oligo rG, 20 mM Tris HCl pH 7.6, 100 mM ammonium acetate, 10 mM dithiothreitol, 2 mM CHAPS, 1 mM MgCl2, and 150-200 nM ^3H labeled GTP. Test compounds (inhibitors) may be incorporated in the reaction mixture with up to 10% DMSO. The reaction is run for various times (1-180 minutes) at 22-37° C., and stopped by the addition of 10-140 mM EDTA. Scintillation Proximity Assay avidin-coated beads (Amersham Pharmacia Biotech) are added to capture the ds RNA product; or the reaction mixtures may be transferred to avidin coated Flash Plates (Perkin Elmer Life Sciences). The incorporation of radiolabeled GTP into the complementary strand is measured in 96, 384, or 1536 well plates in scintillation counters such as the Wallac Microbeta and Packard TopCount.
Regarding “5-(aminomethyl)-2-{[2-[(2-carboxyphenyl)thio]-5-(trifluoromethyl)phenyl]amino}benzoic acid [xii]”, the IC50 was 1 to 20 µM.

With `N#Cc1ccc(Nc2ccccc2Nc2ccccc2C(=O)O)c(C(=O)O)c1` [li, 2-({2-[(2-carboxyphenyl)amino]phenyl}amino)-5-cyanobenzoic acid], the IC50 fell in the range of 1 to 20 µM.

Turning to `O=C(O)c1ccccc1Nc1ccc(F)cc1Nc1ccccc1C(=O)O` [lii, 2-({2-[(2-carboxyphenyl)amino]-4-fluorophenyl}amino)benzoic acid], the IC50 is 1 to 20 µM.

Regarding `O=C(O)c1ccccc1Nc1ccccc1Nc1cc(F)ccc1C(=O)O` [lix, 2-({2-[(2-carboxyphenyl)amino]phenyl}amino)-4-fluorobenzoic acid], the IC50 was more than 20 µM.

In the case of `c1ccc(Nc2ccccc2-c2nnn[nH]2)c(Nc2ccccc2-c2nnn[nH]2)c1` [lv, N,N′-bis[2-(1H-tetrazol-5-yl)phenyl]benzene-1,2-diamine, disodium salt], the IC50 lay within 1 to 20 µM.

Consider `O=C(O)c1ccccc1Nc1ccccc1Nc1cc(F)c(F)cc1C(=O)O` [lvii, 2-({2-[(2-carboxyphenyl)amino]phenyl}amino)-4,5-difluorobenzoic acid], for which the IC50 was 1 to 20 µM.

In the case of `O=C(O)c1ccccc1Nc1ccccc1Nc1ccccc1C(=O)O` [lviii], the IC50 was more than 20 µM.

Take `COc1ccc(Nc2ccccc2Nc2ccccc2C(=O)O)c(C(=O)O)c1` [lx, 2-({2-[(2-carboxyphenyl)amino]phenyl}amino)-5-methoxybenzoic acid]: the IC50 is more than 20 µM.

Turning to `O=C(O)c1ccccc1Nc1cc(C(F)(F)F)ccc1Oc1ccccc1C(=O)O` [lxv, 2-{[2-(2-carboxyphenoxy)-5-(trifluoromethyl)phenyl]amino}benzoic acid], the IC50 fell in the range of 1 to 20 µM.

Turning to `Cc1ccc(Nc2ccccc2C(=O)O)c(Nc2ccccc2C(=O)O)c1` [xl, 2-({2-[(2-carboxyphenyl)amino]-4-methylphenyl}amino)benzoic acid], the IC50 fell in the range of 1 to 20 µM.

Consider `N#Cc1ccc(Nc2ccc(C(F)(F)F)cc2Nc2ccccc2C(=O)O)c(C(=O)O)c1` [xvi, 2-{[2-[(2-carboxyphenyl)amino]-4-(trifluoromethyl)phenyl]amino}-5-cyanobenzoic acid], for which the IC50 fell in the range of 1 to 20 µM.

For the compound `N[C@@H](Cc1ccccc1)C(=O)NCc1ccc(Nc2cc(C(F)(F)F)ccc2Nc2ccccc2C(=O)O)c(C(=O)O)c1` [xviii, N-(3-carboxy-4-{[2-[(2-carboxyphenyl)amino]-5-(trifluoromethyl)phenyl]amino}benzyl)-L-phenylalaninamide chloride], the IC50 is more than 20 µM.

Take `NCc1ccc(Nc2ccc(C(F)(F)F)cc2Nc2ccccc2C(=O)O)c(C(=O)O)c1` [xxiv, 5-(aminomethyl)-2-{[2-[(2-carboxyphenyl)amino]-4-(trifluoromethyl)phenyl]amino}benzoic acid hydrochloride]: the IC50 was less than 1 µM.

In the case of `NCc1ccc(Nc2cc(C(F)(F)F)ccc2Oc2ccccc2C(=O)O)c(C(=O)O)c1` [xxv, 5-(aminomethyl)-2-{[2-(2-carboxyphenoxy)-5-(trifluoromethyl)phenyl]amino}benzoic acid hydrochloride], the IC50 is more than 20 µM.

Turning to `NCCc1ccc(Nc2ccc(C(F)(F)F)cc2Nc2ccccc2C(=O)O)c(C(=O)O)c1` [xxvii, 5-(2-aminoethyl)-2-{[2-[(2-carboxyphenyl)amino]-4-(trifluoromethyl)phenyl]amino}benzoic acid hydrochloride], the IC50 was less than 1 µM.

Consider `O=C(O)c1ccccc1Nc1ccc(C(F)(F)F)cc1Nc1ccc(CN2CCCC2)cc1C(=O)O` [xxx, 2-{[2-[(2-carboxyphenyl)amino]-5-(trifluoromethyl)phenyl]amino}-5-(pyrrolidin-1-ylmethyl)benzoic acid], for which the IC50 was 1 to 20 µM.

For `O=C(O)c1ccccc1Nc1ccc(C(F)(F)F)cc1Nc1ccccc1C(=O)O` [xxxi, 2-{[2-[(2-carboxyphenyl)amino]-4-(trifluoromethyl)phenyl]amino}benzoic acid], the IC50 is less than 1 µM.

For the compound `NCCc1ccc(Nc2cc(C(F)(F)F)ccc2Nc2ccccc2C(=O)O)c(C(=O)O)c1` [xxxviii, 5-(2-aminoethyl)-2-{[2-[(2-carboxyphenyl)amino]-5-(trifluoromethyl)phenyl]amino}benzoic acid hydrochloride], the IC50 was less than 1 µM.
